# Test results from patent US5545625A, “Preventing conversion of citrulline to argininosuccinate to limit pathological nitric oxide overproduction” (The Medical College of Wisconsin Research Foundation, Inc., priority 1994, dated 1996).
# Several values for one entry are separate records, joined by “and”; a condition that tells them apart may be missing. Identical values can stand only once.
# What was measured:
# [1] = target: T1, immunostimulant induced argininosuccinate synthetase (Rattus norvegicus, UniProt P09034); experiment: Argininosuccinate synthetase assay in crude homogenate of immunostimulant treated rat aortic smooth muscle cells (Example VI); format: biochemical; conditions: test compound 1 mM; for counts per minute in the argininosuccinate synthetase assay: duplicate runs, control 534.00 and 443.00, background 217, 237 and 252 not subtracted
# T1 sequence (P09034 1-412): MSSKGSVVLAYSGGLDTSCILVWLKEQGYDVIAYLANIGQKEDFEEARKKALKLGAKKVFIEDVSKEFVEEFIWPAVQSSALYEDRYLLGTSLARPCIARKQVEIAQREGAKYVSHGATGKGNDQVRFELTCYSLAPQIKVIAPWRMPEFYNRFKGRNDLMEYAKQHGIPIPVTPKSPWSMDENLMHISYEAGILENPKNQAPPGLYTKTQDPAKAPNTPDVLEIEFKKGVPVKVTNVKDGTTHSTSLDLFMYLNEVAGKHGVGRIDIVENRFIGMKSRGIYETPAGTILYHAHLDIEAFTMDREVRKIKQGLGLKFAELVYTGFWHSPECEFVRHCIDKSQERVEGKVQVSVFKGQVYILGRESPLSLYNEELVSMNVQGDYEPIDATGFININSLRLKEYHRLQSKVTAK
# Experimental: Argininosuccinate synthetase activity was assayed based on the conversion of [^14 C]aspartate to [^14 C]argininosuccinate, as described in O'Brien, W. E., Biochemistry 18, 5353-5356, 1979, with the exception that aspartate was present at a concentration of 30 μm (0.021 μCi/nmol). Reaction mixtures also contained L-citrulline (5 mM), Tris (10 mM, pH 7.5), ATP 0.1mM), phosphoenolpyruvate (1.5 mM), pyruvate kinase (4.5 units), myokinase (4 units), and pyrophosphatase (0.2 unit) in a total volume of 0.3 ml. Reactions were allowed to proceed for 90 minutes at 37° C before termination and quantification of the [^14 C]argininosuccinate formed, using ion exchange chromatography on Dowex 1-X8 (200-400 mesh, Bio-Rad).
# Immunostimulant treated rat aortic smooth muscle cells prepared as in Example I were homogenized in 10 volumes (10 ml/gm rat aortic smooth muscle cells) of 100 mM tris buffer containing 1 mM phenylmethylsulfonyl fluoride ([…]) and 1 mM dithiothreitol (to maintain enzyme in reduced form).
# For the control, the crude homogenate was assayed for argininosuccinate synthetase by the procedure as described in Example I except that L-citrulline was present at a concentration of 150 μM instead of 5 mM. In duplicate runs, counts per minute were 534.00 (8.65% error) and 443.00 (9.50% error) counts per minute.
# The background count to be subtracted from the above count results was obtained by omitting citrulline from the argininosuccinate synthetase assay and in three runs was determined to be 217, 237 and 252 counts per minute.
# [2] = test system: rat aortic smooth muscle cells; experiment: Nitrite production (indicator of cellular NO synthesis) by LPS/interferon-gamma induced rat aortic smooth muscle cells (Examples IV, V); format: cell-based; conditions: L-citrulline varied at fixed L-arginine (0 or low), added with immunostimulant; 24 hours; FIG. 5
# Experimental: Rat aortic smooth muscle cells were grown as described in Example I and were continuously treated with 30 μg/ml of bacterial lipopolysaccharide in combination with 50 ng/ml of interferongamma. Concentrations of mithramycin as indicated in FIG. 4 were added either simultaneously with immunostimulant (filled in circles in FIG. 4) or 4 hours later (open circles in FIG. 4).
# Nitrite was used as an indicator of cellular NO synthesis and assay was carried out as described in Gross, S. S., et al, J. Biol. Chem. 267, 25722-25729 (1992). In the assay, cells were treated with serum- and arginine-free RPMI 1640 medium containing the desired test agents for 24 hours. The accumulation of nitrite in the cell culture medium was quantified colorimetrically after adding 100 μl of Griess reagent (1% sulfanilamide and 0.1% naphthalene diamine in 5% o-phosphoric acid) to an equal volume of sample.
# Rat aortic smooth muscle cells were grown as described in Example I and were treated with 30 μg/ml of bacterial lipopolysaccharide in combination with 50 ng/ml of interferon-gamma. Concentrations of L-citrulline and L-arginine as indicated in FIG. 5 were added simultaneously with immunostimulant. Nitrite was used as an indicator of cellular NO synthesis and assay therefor was carried out as described in Example IV.
# [3] = test system: patient with Gram negative septicemia; experiment: Blood pressure in septicemia patient given N^G -methyl-L-arginine plus test agent (Examples X, XVI); format: in vivo, human; conditions: N^G -methyl-L-arginine 20 mg/kg bolus then 10 mg/kg/hr, plus N^ω -methyl-L-citrulline 40 mg/kg intravenously over 3-6 hours
# Experimental: A patient with Gram negative septicemia and blood pressure of 80/55 mm Hg is administered N^G -methyl-L-arginine in a bolus dose of 20 mg/kg intravenously in saline and thereafter is given a sustained infusion of N^G -methyl-L-arginine at a dosage of 10 mg/kg/hr. Mithramycin (25 μg/kg) is given intravenously in 50 ml saline over 3-6 hours starting at the time of the bolus dose of N^G -methyl-L-arginine. […] The patient is released after 2 days.
# A patient with a Gram negative septicemia and blood pressure of 80/55 mm Hg is administered N^G -methyl-L-arginine in a bolus dose of 20 mg/kg intravenously in saline and thereafter is given a sustained infusion of N^G -methyl-L-arginine at a dose of 10 mg/kg/hr. N^ω -Methyl-L-citrulline (40 mg/kg) is given intravenously in 50 ml saline over 3-6 hours starting at the time of the bolus dose of N^G -methyl-L-arginine.
# [4] = test system: patient with Gram negative septicemia; experiment: Blood pressure in septicemia patient given dopamine plus test agent (Examples IX, XV); format: in vivo, human; conditions: dopamine 10 μg/kg/min plus L-thiocitrulline 20 mg/kg bolus then 10 mg/kg/hr
# Experimental: A patient with Gram negative septicemia and blood pressure of 80/55 mm Hg is administered dopamine at 10 μg/kg/min to acutely increase blood pressure and concurrently is administered mithramycin (25 μg/kg) intravenously in 50 ml saline over 3-6 hours.
# A patient with Gram negative septicemia and blood pressure of 80/55 mm Hg is administered dopamine at 10 μg/kg/min to acutely increase blood pressure and concurrently is intravenously administered an initial bolus dose of L-thiocitrulline of 20 mg/kg and thereafter L-thiocitrulline as a sustained infusion at a dose of 10 mg/kg/hr.
# [5] = test system: human treated with interleukin-2; experiment: Hypotension during interleukin-2 treatment for renal cell cancer (Examples VIII, XIV); format: in vivo; conditions: interleukin-2 1×10^6, 5 days; L-thiocitrulline 10 mg/kg/day from start of infusion
# Experimental: A human is treated for renal cell cancer with interleukin-2 (1×10^6 units) for 5 days. By the fifth day, the patient's blood pressure falls to 80/55 mm Hg and the patient encounters nausea and extreme discomfort. Three weeks later, the patient returns for a second course of interleukin-2 treatment but is pretreated (before commencing interleukin-2 infusion) with mithramycin (25 μg/kg) and is treated at 24 hour intervals thereafter with 25 μg/kg of mithramycin. The mithramycin is administered intravenously in 50 ml saline over a 3 to 6 hour interval.
# A human is treated for renal cell cancer with interleukin-2 (1×10^6) for 5 days. Simultaneously with commencing interleukin-2 infusion, L-thiocitrulline (10 mg/kg/day) is administered.
# [6] = test system: Sprague-Dawley rats; experiment: Air pouch inflammatory model with croton oil (Examples XII, XVIII); format: in vivo, rat; conditions: L-thiocitrulline 20 mg/kg intraperitoneally, repeated at 6-24 hour intervals; end of 5 days; versus rats without drug
Structure (SMILES),inhibition of immunostimulant induced argininosuccinate synthetase ([1]; L-citrulline 150 μM),counts per minute in the argininosuccinate synthetase assay ([1]; L-citrulline 150 μM),inhibition of immunostimulant induced argininosuccinate synthetase ([1]; stated in present tense),other results
N=C(N)NOCC[C@H](N)C(=O)O [L-canavanine],are inhibitors of immunostimulant induced argininosuccinate synthetase,355.00 (10.61% error) counts per minute and 393.00 (10.09% error) counts per minute,–,–
CCC[C@H](N)C(=O)O [L-norvaline],–,–,inhibition of immunostimulant induced argininosuccinate synthetase is shown,–
NC(=O)NCCC[C@H](N)C(=O)O [L-citrulline],–,–,–,nitrite concentration in cell culture medium [2]: maximal nitrite is obtained
CNC(=O)NCCC[C@H](N)C(=O)O [N^ω -methyl-L-citrulline],–,–,more potent than obtained with L-canavanine but less potent than obtained with L-thiocitrulline,blood pressure [3]: becomes mildly hypotensive or normal within minutes
NC(=S)NCCC[C@H](N)C(=O)O [L-thiocitrulline],are inhibitors of immunostimulant induced argininosuccinate synthetase,272.00 (12.13% error) counts per minute and 227.00 (13.27% error) counts per minute,–,blood pressure [4]: becomes normal within minutes and this state is sustained; development of hypotension [5]: Hypotension does not develop; inflammation [6]: less inflammation; nitrite in the fluid exudate of the lesion [6]: significantly less nitrite
CNC(=N)NCCC[C@H](N)C(=O)O [N^ω -methyl-L-arginine],–,591.00 (8.23% error) counts per minute and 520.00 (8.77% error) counts per minute,–,–
